Results as given in US5292751A, “5,7-dihydroxy-2-methyl-8-(4-(3-hydroxy-1-(1-propyl))pip eridinyl)-4H-1-benzopyran-4-one, its preparation and its use” (priority 1991, dated 1994).
Read-outs that look alike come from different tables or passages of the source.

How the values were obtained:
[1] = type: in vivo; conditions: for Therapeutic index (LD50 ED50): LD50 over carrageenin ED50
Description: 1. Acute inflammation model:
Systemic anti-inflammatory action on carrageenin-induced paw oedema in rats.
Male Charles Foster rats (120-150 g) were fasted for 18 hours, with water ad libitum. The test compound suspended in Tween^R 80 and 0.5% C.M.C. was administered orally. The control group received Tween 80 and 0.5% C.M.C. 0.05 ml of 0.5% carrageenin suspension was injected subcutaneously into the plantar region of the left hind paw. Using a Maclab differential volume meter, the paw volume was determined before the carrageenin injection and 3 and 6 hours after the injection. The percentage decrease in paw volume was calculated by the following equation: [formula] The ED50 value was calculated from the dose/response curve. Six animals were used for each group.

[2] = in vivo; conditions: po, rat
[3] = in vivo; type: in vivo; conditions: for potentiation of the secondary arthritic response: p.o. per day
Description: 2. Adjuvant induced arthritis (developing) in Rats
Female Charles Foster rats weighing 150-180 g were sorted into groups (10 rats/group). Each animal received 10 μl of 1% suspension of mycobacterium tuberculli in paraffin oil, intradermally, at the base of the tail. Drug treatment was instituted on the day of the induction of arthritis and continued for 21 days. The body weight of each rat was noted prior to the adjuvant suspension injection and subsequently all throughout for 21 days. Volumes of both hind paws were recorded on the day of injection and subsequently from 7 days onwards till the end of the experiment.

[4] = rat, p.o., carrageenin paw oedema, from dose/response curve

| SMILES | ED50, mg/kg p.o. [1, 4] [mg/kg] | Therapeutic index (LD50 ED50) ([1]; rat, p.o.) | LD50 [2] [mg/kg] | inhibition of adjuvant arthritis ([3]; 0.1, 1 and 10 mg/kg, p.o., 21 days) | mortality ([3]; rat, in vivo, po, 10 mg/kg/day, 10 mg/kg, p.o./day, between 9th and 11th day of administration) [%] | therapeutic index, comparison in words ([1]; compared with compounds B and C) | deaths or toxic side effects ([3]; 30 mg/kg, p.o./day, 21 days) | inhibition of adjuvant arthritis ([3]; 1.25, 2.5, 5 and 10 mg/kg/day, p.o., 21 days) | ED50, mg/kg p.o. ([1]; po) [mg/kg] | potentiation of the secondary arthritic response ([3]; 3 mg/kg) [%] | potentiation of the secondary arthritic response ([3]; 9 mg/kg) [%] | symptoms of cytotoxicity ([3]; 18 mg/kg, p.o./day) | inhibition of adjuvant arthritis ([3]; 18 mg/kg, p.o./day, may be due to toxicity) | response in adjuvant arthritis ([3]; 3, 9, 18 and 27 mg/kg/day p.o., 21 days) | therapeutic range ([3]; p.o., daily dosing) |
| --- | --- | --- | --- | --- | --- | --- | --- | --- | --- | --- | --- | --- | --- | --- | --- |
| CN1CCC(c2c(O)cc(O)c3c(=O)cc(-c4ccccc4)oc23)C(O)C1 (stereo not drawn) [Compound C] | 1.3 | 20.76 | 27 | No inhibition of adjuvant arthritis was seen at any of the doses tested | 50 |  |  |  |  |  |  |  |  |  |  |
| CCCN1CC[C@H](c2c(O)cc(O)c3c(=O)cc(C)oc23)[C@H](O)C1 (single isomer, unassigned) [Compound A] | 20.0 | 32.5 | 650 |  |  | favourable therapeutic index over compounds B and C | No deaths or toxic side effects were observed | dose-dependent and significant inhibition |  |  |  |  |  |  |  |
| Cc1cc(=O)c2c(O)cc(O)c(C3CCN(C)CC3O)c2o1 (stereo not drawn) [Compound B] |  |  |  |  |  |  |  |  | 9.0 | 58.6 | 64.9 | weight loss and severe diarrhoea | significant inhibition | biphasic response | narrow therapeutic range |
